# Experimental data as given in PubChem BioAssay AID2060888 (Molecular Pharmacology Branch, DTP, NCI, 2025).
# Tested on: 695427-040-R-J1-PDC complex spheroid viability
# Assay: Anticancer human tumor 695427-040-R-J1-PDC patient-derived colon adenocarcinoma cell line growth inhibition [RAS]
# Conditions: for IC50: curve of first compound; for viability, T/C: stronger effect = lower value
# In short: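 Multi-cell-type spheroids: tumor cells plus HUVEC endothelial cells and mesenchymal stem cells. RAS-pathway inhibitors were combined with targeted agents, each dosed in half-log steps down from clinical Cmax, or from 10 microM when Cmax was unknown.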
# [1] = second compound 0.000949 µM, first compound 0.0316 µM
# [2] = second compound 0.000949 µM, first compound 0.1 µM
# [3] = second compound 0.000949 µM, first compound 0.316 µM
# [4] = second compound 0.000949 µM, first compound 1 µM
# [5] = second compound 0.003 µM, first compound 0.0316 µM
# [6] = second compound 0.003 µM, first compound 0.1 µM
# [7] = second compound 0.003 µM, first compound 0.316 µM
# [8] = second compound 0.003 µM, first compound 1 µM
# [9] = second compound 0.00949 µM, first compound 0.0316 µM
# [10] = second compound 0.00949 µM, first compound 0.1 µM
# [11] = second compound 0.00949 µM, first compound 0.316 µM
# [12] = second compound 0.00949 µM, first compound 1 µM
# [13] = second compound 0.03 µM, first compound 0.0316 µM
# [14] = second compound 0.03 µM, first compound 0.1 µM
# [15] = second compound 0.03 µM, first compound 0.316 µM
# [16] = second compound 0.03 µM, first compound 1 µM
# [17] = second compound 0.0949 µM, first compound 0.0316 µM
# [18] = second compound 0.0949 µM, first compound 0.1 µM
# [19] = second compound 0.0949 µM, first compound 0.316 µM
# [20] = second compound 0.0949 µM, first compound 1 µM
# [21] = second compound 0.3 µM, first compound 0.0316 µM
# [22] = second compound 0.3 µM, first compound 0.1 µM
# [23] = second compound 0.3 µM, first compound 0.316 µM
# [24] = second compound 0.3 µM, first compound 1 µM
# [25] = second compound 0.000949 µM, first compound 3.16 µM
# [26] = second compound 0.000949 µM, first compound 10 µM
# [27] = second compound 0.003 µM, first compound 3.16 µM
# [28] = second compound 0.003 µM, first compound 10 µM
# [29] = second compound 0.00949 µM, first compound 3.16 µM
# [30] = second compound 0.00949 µM, first compound 10 µM
# [31] = second compound 0.03 µM, first compound 3.16 µM
# [32] = second compound 0.03 µM, first compound 10 µM
# [33] = second compound 0.0949 µM, first compound 3.16 µM
# [34] = second compound 0.0949 µM, first compound 10 µM
# [35] = second compound 0.3 µM, first compound 3.16 µM
# [36] = second compound 0.3 µM, first compound 10 µM
# 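Also: viability read after seven days of drug exposure.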
# 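For viability, T/C in this document: 100% = DMSO vehicle control viability.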
smiles,measurement,setting,value
CCN1CCN(Cc2ccc(Nc3ncc(F)c(-c4cc(F)c5nc(C)n(C(C)C)c5c4)n3)nc2)CC1 + CCn1c(-c2cc(N3CCN(C)CC3)cnc2C(C)OC)c2c3cc(ccc31)-c1csc(n1)CC(NC(=O)C1CC1C)C(=O)N1CCCC(N1)C(=O)OCC(C)(C)C2,IC50,second compound 0.000949 µM,> 1 µM
same,IC50,second compound 0.003 µM,> 1 µM
same,IC50,second compound 0.00949 µM,> 1 µM
same,IC50,second compound 0.03 µM,0.0753 µM
same,IC50,second compound 0.0949 µM,< 0.00316 µM
same,IC50,second compound 0.3 µM,< 0.00316 µM
same,"viability, T/C","second compound 0.000949 µM, first compound 0.00316 µM",94.2%
same,"viability, T/C","second compound 0.000949 µM, first compound 0.01 µM",87.4%
same,"viability, T/C",[1],95.4%
same,"viability, T/C",[2],94.4%
same,"viability, T/C",[3],92.8%
same,"viability, T/C",[4],59.9%
same,"viability, T/C","second compound 0.003 µM, first compound 0.00316 µM",97.9%
same,"viability, T/C","second compound 0.003 µM, first compound 0.01 µM",105%
same,"viability, T/C",[5],95.7%
same,"viability, T/C",[6],85.2%
same,"viability, T/C",[7],83.3%
same,"viability, T/C",[8],59.2%
same,"viability, T/C","second compound 0.00949 µM, first compound 0.00316 µM",105%
same,"viability, T/C","second compound 0.00949 µM, first compound 0.01 µM",74.5%
same,"viability, T/C",[9],84.2%
same,"viability, T/C",[10],67.2%
same,"viability, T/C",[11],67.8%
same,"viability, T/C",[12],49.6%
same,"viability, T/C","second compound 0.03 µM, first compound 0.00316 µM",65%
same,"viability, T/C","second compound 0.03 µM, first compound 0.01 µM",62.9%
same,"viability, T/C",[13],45.4%
same,"viability, T/C",[14],53.3%
same,"viability, T/C",[15],47.6%
same,"viability, T/C",[16],39.7%
same,"viability, T/C","second compound 0.0949 µM, first compound 0.00316 µM",51.9%
same,"viability, T/C","second compound 0.0949 µM, first compound 0.01 µM",41.2%
same,"viability, T/C",[17],50.4%
same,"viability, T/C",[18],37%
same,"viability, T/C",[19],44.4%
same,"viability, T/C",[20],36.5%
same,"viability, T/C","second compound 0.3 µM, first compound 0.00316 µM",37.4%
same,"viability, T/C","second compound 0.3 µM, first compound 0.01 µM",41.4%
same,"viability, T/C",[21],38.6%
same,"viability, T/C",[22],38.8%
same,"viability, T/C",[23],42.6%
same,"viability, T/C",[24],41.9%
Cc1nc(N2CCC3(CC2)COC(C)C3N)c(CO)nc1Sc1ccnc(N)c1Cl (stereo unspecified) + CCn1c(-c2cc(N3CCN(C)CC3)cnc2C(C)OC)c2c3cc(ccc31)-c1csc(n1)CC(NC(=O)C1CC1C)C(=O)N1CCCC(N1)C(=O)OCC(C)(C)C2,IC50,second compound 0.000949 µM,3.42 µM
same,IC50,second compound 0.003 µM,1.23 µM
same,IC50,second compound 0.00949 µM,0.613 µM
same,IC50,second compound 0.03 µM,0.117 µM
same,IC50,second compound 0.0949 µM,< 0.0316 µM
same,IC50,second compound 0.3 µM,< 0.0316 µM
same,"viability, T/C",[1],98.8%
same,"viability, T/C",[2],93.1%
same,"viability, T/C",[3],84.9%
same,"viability, T/C",[4],79.5%
same,"viability, T/C",[25],49.7%
same,"viability, T/C",[26],26.9%
same,"viability, T/C",[5],86.3%
same,"viability, T/C",[6],76.7%
same,"viability, T/C",[7],52.7%
same,"viability, T/C",[8],53.2%
same,"viability, T/C",[27],49.9%
same,"viability, T/C",[28],32.6%
same,"viability, T/C",[9],71%
same,"viability, T/C",[10],69.8%
same,"viability, T/C",[11],49.6%
same,"viability, T/C",[12],50.9%
same,"viability, T/C",[29],33.9%
same,"viability, T/C",[30],30.6%
same,"viability, T/C",[13],63.9%
same,"viability, T/C",[14],42.9%
same,"viability, T/C",[15],48.2%
same,"viability, T/C",[16],32.4%
same,"viability, T/C",[31],29.8%
same,"viability, T/C",[32],17.7%
same,"viability, T/C",[17],46.5%
same,"viability, T/C",[18],40.5%
same,"viability, T/C",[19],25.2%
same,"viability, T/C",[20],29.1%
same,"viability, T/C",[33],23%
same,"viability, T/C",[34],18.9%
same,"viability, T/C",[21],27.5%
same,"viability, T/C",[22],32.3%
same,"viability, T/C",[23],28.7%
same,"viability, T/C",[24],27.7%
same,"viability, T/C",[35],24.4%
same,"viability, T/C",[36],16%
NC1c2ccccc2OC12CCN(c1cnc3c(N4CCCc5ncccc54)n[nH]c3n1)CC2 (stereo unspecified) + CCn1c(-c2cc(N3CCN(C)CC3)cnc2C(C)OC)c2c3cc(ccc31)-c1csc(n1)CC(NC(=O)C1CC1C)C(=O)N1CCCC(N1)C(=O)OCC(C)(C)C2,IC50,second compound 0.000949 µM,0.375 µM
same,IC50,second compound 0.003 µM,0.209 µM
same,IC50,second compound 0.00949 µM,0.072 µM
same,IC50,second compound 0.03 µM,< 0.0316 µM
same,IC50,second compound 0.0949 µM,< 0.0316 µM
same,IC50,second compound 0.3 µM,< 0.0316 µM
same,"viability, T/C",[1],74.8%
same,"viability, T/C",[2],70.1%
same,"viability, T/C",[3],53.9%
same,"viability, T/C",[4],29.2%
same,"viability, T/C",[25],32.4%
same,"viability, T/C",[26],24.9%
same,"viability, T/C",[5],73.9%
same,"viability, T/C",[6],59.2%
same,"viability, T/C",[7],47%
same,"viability, T/C",[8],24.4%
same,"viability, T/C",[27],23.5%
same,"viability, T/C",[28],20.5%
same,"viability, T/C",[9],62.2%
same,"viability, T/C",[10],45.3%
same,"viability, T/C",[11],22.5%
same,"viability, T/C",[12],25.1%
same,"viability, T/C",[29],18.2%
same,"viability, T/C",[30],15.8%
same,"viability, T/C",[13],45.4%
same,"viability, T/C",[14],36%
same,"viability, T/C",[15],27.9%
same,"viability, T/C",[16],21.1%
same,"viability, T/C",[31],13.2%
same,"viability, T/C",[32],16.8%
same,"viability, T/C",[17],39.2%
same,"viability, T/C",[18],27.3%
same,"viability, T/C",[19],22.3%
same,"viability, T/C",[20],15.2%
same,"viability, T/C",[33],14.1%
same,"viability, T/C",[34],13.1%
same,"viability, T/C",[21],27.5%
same,"viability, T/C",[22],27%
same,"viability, T/C",[23],20.7%
same,"viability, T/C",[24],14.5%
same,"viability, T/C",[35],10.2%
same,"viability, T/C",[36],15.5%
